Data: PubChem BioAssay (NCI)
Several values for one entry are separate records, joined by “and”; a condition that tells them apart may be missing. Equal values may be shown once.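 All cell lines were grown in 96-well plates and treated with compound for 48 hours. Here, GI50 denotes the concentration required for 50% inhibition of growth. TGI marks complete inhibition of growth.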

How the values were obtained:
Experiment in all cases: DTP human tumour cell line panel, 48 h
K-562 leukemia = system: K-562 leukemia
SNB-19 CNS = system: SNB-19 CNS
MDA-MB-435 = system: MDA-MB-435
RXF 393 renal = system: RXF 393 renal
MCF7 breast = system: MCF7 breast
EKVX NSCLC = system: EKVX NSCLC
NCI/ADR-RES ovarian = system: NCI/ADR-RES ovarian
KM12 colon = system: KM12 colon
DLD-1 colon = system: DLD-1 colon
M19-MEL melanoma = system: M19-MEL melanoma

SMILES	GI50 (K-562 leukemia)	TGI (K-562 leukemia)	GI50 (SNB-19 CNS)	TGI (SNB-19 CNS)	GI50 (MDA-MB-435)	TGI (MDA-MB-435)	GI50 (RXF 393 renal)	TGI (RXF 393 renal)	GI50 (MCF7 breast)	TGI (MCF7 breast)	GI50 (EKVX NSCLC)	TGI (EKVX NSCLC)	GI50 (NCI/ADR-RES ovarian)	TGI (NCI/ADR-RES ovarian)	GI50 (KM12 colon)	TGI (KM12 colon)	TGI (DLD-1 colon)	TGI (M19-MEL melanoma)	GI50 (DLD-1 colon)
CCN(CC)CCCC(Cc1ccccc1)Nc1c2ccc(Cl)cc2nc2ccc(OC)cc12 (stereo not given)	1.07 µM	2.89 µM	2.56 µM	7.17 µM	1.5 µM	2.89 µM	1.63 µM	3.35 µM	1.54 µM	3.35 µM	2.84 µM	10.5 µM	3.02 µM	10.4 µM	2.79 µM	10.3 µM	–	–	–
N#CCCSC(=S)C1CCCC1=N (stereo not given)	–	> 100 µM	–	> 100 µM	–	> 100 µM	–	> 100 µM	–	> 100 µM	–	> 100 µM	–	> 100 µM	–	> 100 µM	–	–	–
COC1OC(COS(=O)(=O)c2ccc(C)cc2)C(O)C(OS(=O)(=O)c2ccc(C)cc2)C1OS(=O)(=O)c1ccc(C)cc1 (stereo not given)	–	> 100 µM	–	> 100 µM	–	–	–	> 100 µM	–	–	–	> 100 µM	–	–	–	> 100 µM	> 100 µM	> 100 µM	–
Nc1ccc(-c2nc3ccccc3o2)cc1S	19 µM	> 100 µM	22.9 µM	81.3 µM	17.8 µM	36.9 µM	29.4 µM	59.6 µM	12.1 µM	38.3 µM	11.6 µM	55.3 µM	24.9 µM	65.2 µM	8.1 µM	35.2 µM	–	–	–
NC1=CC(=O)c2nc3ccccc3c3ccnc1c23	4.26 µM	> 100 µM	3.06 µM	> 93.2 µM	1.22 µM	19 µM	4.78 µM	17.2 µM	1.29 µM	> 100 µM	9.14 µM	29.4 µM	7.33 µM	69.4 µM	3.05 µM	> 65.9 µM	–	–	–
COC1=C2C[C@@H](C)C[C@@H](OC)[C@@H](O)[C@H](C)/C=C(\C)[C@@H](OC(N)=O)[C@H](OC)/C=C\C=C(/C)C(=O)NC(=CC1=O)C2=O	–	–	–	28 µM and 26.5 µM and 10.4 µM	–	5.5 µM and 8.63 µM and 5.65 µM	0.0245 µM	–	–	–	–	–	–	10.7 µM and 32.8 µM and 10.6 µM	–	–	9.63 µM and 3.15 µM	–	0.131 µM
CCC(c1ccc2cc(O)ccc2c1)C(C)(C)C(=O)O (stereo not given)	–	> 100 µM	–	> 100 µM	–	> 100 µM	–	> 100 µM	–	> 100 µM	–	> 100 µM	–	> 100 µM	–	> 100 µM	–	–	–
CC(=O)OC1CC2C(C)(C)C(=O)C=C[C@]2(C)C2CCC3(C)C(c4ccoc4)[C@@H](O)[C@H]4O[C@]43[C@]12C (stereo not given in full)	–	39.5 µM	–	59.6 µM	–	–	–	35.5 µM	–	–	–	> 100 µM	–	–	–	35.1 µM	41 µM	36.5 µM	–
COc1ccc(-c2cc(-c3cc(C)ccc3O)[nH]c(=O)n2)cc1	–	> 100 µM	–	> 100 µM	–	–	–	88.6 µM	–	–	–	> 100 µM	–	–	–	> 100 µM	> 100 µM	> 100 µM	–
COC(=O)C1=C(CS(=O)c2ccc([N+](=O)[O-])cc2[N+](=O)[O-])ON(C)C1c1ccccc1 (stereo not given)	–	34.5 µM	–	> 87.9 µM	–	–	–	> 80.7 µM	–	–	–	> 100 µM	–	–	–	> 100 µM	> 100 µM	> 100 µM	–
Cc1[nH]nc2ccc3nc(-c4ccc5[nH]ncc5c4)c4c(c3c12)CCCC4	1.7 µM	> 100 µM	2.62 µM	12.1 µM	1.23 µM	12.9 µM	0.23 µM	–	3.54 µM	17.1 µM	2.95 µM	25.7 µM	2.4 µM	15.8 µM	0.63 µM	13.6 µM	–	–	–
O=C1CC[C@H](c2ccc(O)c3c2C(=O)[C@@H]2O[C@@H]2C3=O)c2cccc(O)c21	2.36 µM	10.4 µM	10.6 µM	33.6 µM	1.92 µM	4.2 µM	1.73 µM	3.27 µM	1.17 µM	4.2 µM	13.1 µM	28.2 µM	3.01 µM	15.1 µM	3.51 µM	12.9 µM	–	–	–
Cc1cc(C)c2nc3nc(C)cc(C)c3c(N)c2c1	3.45 µM	15.9 µM	8.51 µM	35.9 µM	3.53 µM	16.6 µM	6.64 µM	27.5 µM	3.54 µM	16.7 µM	4.76 µM	43 µM	6.88 µM	36.9 µM	5.52 µM	24 µM	–	–	–
CC1=CC(=O)c2c(C=O)c(O)c(O)c(C(C)C)c2C1=O	–	> 100 µM	–	> 100 µM	–	–	–	20.8 µM	–	–	–	–	–	–	–	–	> 68.4 µM	> 100 µM	–
c1ccc(CN2CCCCC(Sc3ccccc3)CC2)cc1 (stereo not given)	–	35 µM	–	> 100 µM	–	–	–	–	–	–	–	> 100 µM	–	–	–	> 100 µM	41.7 µM	12.9 µM	–
O=C(CN1C(=O)S/C(=C\C(Cl)=C\c2ccccc2)C1=O)NCCc1ccc(O)cc1	2.28 µM	> 100 µM	2.54 µM	9.46 µM	2.09 µM	5.28 µM	1.78 µM	3.5 µM	1.79 µM	11.5 µM	2.04 µM	4.74 µM	2.44 µM	8.81 µM	1.7 µM	3.43 µM	–	–	–
O=C(O)CP(=O)(O)O	–	> 100 µM	–	> 100 µM	–	> 100 µM	–	> 100 µM	–	> 100 µM	–	> 100 µM	–	> 100 µM	–	> 100 µM	–	–	–
NC(=O)NC1=NC(Cc2ccccc2)C(=O)N1Cc1ccccc1 (stereo not given)	–	> 100 µM	–	> 100 µM	–	–	–	> 100 µM	–	–	–	> 100 µM	–	–	–	> 100 µM	> 100 µM	> 100 µM	–
CCCCCCCCCCCCCCCCCC(=O)OCC(COC1OC(CS(=O)(=O)O)C(O)C(O)C1O)OC(=O)CCCCCCCCCCCCCCCCC (stereo not given)	–	> 100 µM	–	> 100 µM	–	> 100 µM	–	> 100 µM	–	> 100 µM	–	> 100 µM	–	> 100 µM	–	> 100 µM	–	–	–
